This data set is described as follows: In Vitro Human Skin Permeability Assay (static Franz diffusion cells). The settings on record: in vitro Franz diffusion cell; 0.65% (Compound 2) and 0.55% (Compound 1) (w/w) dose; 48 hour dose exposure; 5 mg formulation/cm^2. As for the experimental part:
To assure the integrity of each skin section, its permeability to tritiated water was determined before application of the test products.

Data on one compound can be found in patent US8492422B2, “Ester pro-drugs of [3-(1-(1H-imidazol-4-yl)ethyl)-2-methylphenyl] methanol for treating skin diseases and conditions” (Allergan, Inc., priority 2010, dated 2013).

With `Cc1c(COC(=O)C(C)C)cccc1[C@H](C)c1c[nH]cn1` [Compound 1, iso-Butyric acid 3-[(S)-1-(1H-imidazol-4-yl)-ethyl]-2-methyl-benzyl ester], the “penetration into and through ex vivo human trunk skin (percutaneous absorption)” value is “penetrate into and through ex vivo human trunk skin”.
